Where “and” joins values, the source holds several entries; their conditions need not be identical. Equal values may be shown once.
Experiment: xn = mol fraction of the nth substance listed

CCCC[n+]1ccn(C)c1.[Br-] + O
Details | electrical conductivity [S/m] | viscosity
288.15 K, 100 kPa, x1 = 0.00126 | – | 1.159 mPa·s
293.15 K, 100 kPa, x1 = 0.0009002 | – | 1.033 mPa·s
293.15 K, 100 kPa, x1 = 0.001799 | – | 1.057 mPa·s
293.15 K, 100 kPa, x1 = 0.002696 | – | 1.069 mPa·s
298.15 K, 100 kPa, x1 = 0.0001802 | – | 0.916 mPa·s
298.15 K, 100 kPa, x1 = 0.0007203 | – | 0.921 mPa·s
298.15 K, 100 kPa, x1 = 0.0009002 | – | 0.918 mPa·s
298.15 K, 100 kPa, x1 = 0.00126 | – | 0.93 mPa·s
298.15 K, 100 kPa, x1 = 0.001799 | – | 0.938 mPa·s
298.15 K, 100 kPa, x1 = 0.002696 | – | 1 mPa·s
298.15 K, 101 kPa, x1 = 1.982e-05 | – | 0.888 mPa·s
298.15 K, 101 kPa, x1 = 3.243e-05 | – | 0.889 mPa·s
298.15 K, 101 kPa, x1 = 0.00999 | 3.16 | –
298.15 K, 101 kPa, x2 = 0.9094 | 6.16 | –
298.15 K, 101 kPa, x2 = 0.94 | 6.13 | –
298.15 K, 101 kPa, x2 = 0.9612 | 5.7 | –
298.15 K, 101 kPa, x2 = 0.9773 | 4.79 | –
298.15 K, 101.3 kPa, x1 = 0.000902 | – | 0.911 mPa·s
298.15 K, 101.3 kPa, x1 = 0.0009056 | – | 0.91 mPa·s and 0.911 mPa·s
298.15 K, 101.3 kPa, x1 = 0.0009074 | – | 0.911 mPa·s
298.15 K, 101.3 kPa, x1 = 0.000911 | – | 0.91 mPa·s
298.15 K, 101.3 kPa, x1 = 0.00144 | – | 0.933 mPa·s and 0.936 mPa·s
298.15 K, 101.3 kPa, x1 = 0.001806 | – | 0.934 mPa·s and 0.935 mPa·s
298.15 K, 101.3 kPa, x1 = 0.001835 | – | 0.923 mPa·s
298.15 K, 101.3 kPa, x1 = 0.001856 | – | 0.932 mPa·s
298.15 K, 101.3 kPa, x1 = 0.0036 | – | 0.966 mPa·s
298.15 K, 101.3 kPa, x1 = 0.003602 | – | 0.961 mPa·s
298.15 K, 101.3 kPa, x1 = 0.003605 | – | 0.961 mPa·s and 0.963 mPa·s
298.15 K, 101.3 kPa, x1 = 0.005384 | – | 0.994 mPa·s
298.15 K, 101.3 kPa, x1 = 0.005411 | – | 0.997 mPa·s and 0.998 mPa·s
298.15 K, 101.3 kPa, x1 = 0.005432 | – | 1.004 mPa·s
303.15 K, 100 kPa, x1 = 0.0009002 | – | 0.823 mPa·s
303.15 K, 100 kPa, x1 = 0.001799 | – | 0.84 mPa·s
303.15 K, 100 kPa, x1 = 0.002696 | – | 0.905 mPa·s
303.15 K, 100 kPa, x1 = 0.05 | – | 2 mPa·s
303.15 K, 100 kPa, x1 = 0.0992 | – | 3.31 mPa·s
303.15 K, 100 kPa, x1 = 0.3882 | – | 31.2 mPa·s
308.15 K, 100 kPa, x1 = 0.0001802 | – | 0.751 mPa·s
308.15 K, 100 kPa, x1 = 0.0007203 | – | 0.756 mPa·s
308.15 K, 100 kPa, x1 = 0.0009002 | – | 0.753 mPa·s
308.15 K, 100 kPa, x1 = 0.00126 | – | 0.763 mPa·s
308.15 K, 100 kPa, x1 = 0.001799 | – | 0.758 mPa·s
308.15 K, 100 kPa, x1 = 0.002696 | – | 0.795 mPa·s
308.15 K, 101 kPa, x1 = 3.243e-05 | – | 0.723 mPa·s
308.15 K, 101 kPa, x1 = 6.584e-05 | 0.0466 | 0.727 mPa·s
308.15 K, 101 kPa, x1 = 6.667e-05 | – | 0.727 mPa·s
308.15 K, 101 kPa, x1 = 0.0001326 | 0.0915 | 0.735 mPa·s
308.15 K, 101.3 kPa, x1 = 0.000902 | – | 0.738 mPa·s
308.15 K, 101.3 kPa, x1 = 0.0009056 | – | 0.735 mPa·s and 0.736 mPa·s
308.15 K, 101.3 kPa, x1 = 0.0009074 | – | 0.737 mPa·s

Source: the CheMixHub ionic liquid set
